Experiment [1] deals with Mus musculus. In words: Antiinflammatory activity against Naja mossambica PLA2-induced Swiss mouse paw edema assessed as inhibition of paw volume at 5 mg/kg, ip administered before 30 mins of PLA2 challenge measured after 60 mins relative to control. The class given is functional. The following applies: route intraperitoneal.
In experiment [2] the test system is Mus musculus. Description: Antiinflammatory activity against TPA-induced ear edema in Swiss mouse chronic dermatitis model assessed as inhibition of increase in ear weight. The class given is functional.
Experiment [3] relates to Mus musculus. In words: Antiinflammatory activity against TPA-induced ear edema in Swiss mouse chronic dermatitis model assessed as inhibition of increase in ear weight at 0.25 mg/ear relative to control. The class given is functional.
Experiment [4] in a line: Inhibition of calcium ionophore A-23187/calcium-stimulated LTB4 production in rat polymorphonuclear leukocytes. The experiment is classed as functional.
Experiment [5] in a line: Inhibition of PKC catalytic subunit.
The subject of experiment [6] is Mus musculus. In words: Antiinflammatory activity against Naja mossambica PLA2-induced Swiss mouse paw edema assessed as inhibition of paw volume at 5 mg/kg, ip administered before 30 mins of PLA2 challenge measured after 30 mins relative to control. The experiment is classed as functional. Conditions: 0.5 h, route intraperitoneal.
The subject of another experiment is Platelet. Description: Inhibition of calcium ionophore A-23187/calcium-stimulated 12-hydroxyheptadecatrienoic acid production in human platelets. The experiment is classed as functional.
The species named for experiment [7] is Mus musculus. In words: Antiinflammatory activity against Swiss mouse chronic dermatitis model assessed as inhibition of TPA-induced tissue myeloperoxidase activity at 0.25 mg/ear applied twice daily for 4 days measured after 6 hrs relative to control. The class given is functional.
The subject of experiment [8] is Mus musculus. Description: Antiinflammatory activity against carrageenan-induced Swiss mouse paw edema assessed as inhibition of paw volume at 10 mg/kg, po administered 1 hr before carrageenan challenge measured after 5 hrs relative to control. The experiment is classed as functional. Background: Carrageenan injected into the paw causes an acute inflammation.
In experiment [9] the test system is Mus musculus. Description: Antiinflammatory activity against TPA-induced ear edema Swiss mouse chronic dermatitis model assessed as inhibition of increase in ear weight at 0.5 mg/ear relative to control. The experiment is classed as functional.
The species named for experiment [10] is Mus musculus. Description: Antiinflammatory activity against Swiss mouse chronic dermatitis model assessed as inhibition of TPA-induced tissue myeloperoxidase activity at 0.5 mg/ear applied twice daily for 4 days measured after 6 hrs relative to control. The experiment is classed as functional.
The subject of experiment [11] is Mus musculus. In words: Antiinflammatory activity against carrageenan-induced Swiss mouse paw edema assessed as inhibition of paw volume at 10 mg/kg, po administered 1 hr before carrageenan challenge measured after 1 hr relative to control. The experiment is classed as functional.
Experiment [12] concerns Mus musculus. In words: Antiinflammatory activity against carrageenan-induced Swiss mouse paw edema assessed as inhibition of paw volume at 10 mg/kg, po administered 1 hr before carrageenan challenge measured after 3 hrs relative to control. The experiment is classed as functional.

pIC50: −log10 of the molar value.

Broadly, the inhibition in vivo is the relative decrease from the control value, in per cent. As a reminder, the pIC50 is the IC50 on a negative log10 scale, so that one unit is a factor of ten. Turning to `CC(C)=CCc1c2c(c(O)c3c(=O)c(-c4ccc(O)cc4)coc13)C=CC(C)(C)O2` [WARANGALONE], the inhibition in vivo at 5 mg/kg with Mus musculus [1] was determined as 68%; in the experiment on Mus musculus [6] it was 21%. Moreover, the ID50 with Mus musculus [2] was found to be 0.54 µmol. For the same compound, the “inhibition (INH)” value is listed as 78% with Mus musculus [3], less than 20% in [4], less than 20% in the experiment with Platelet and 41% in the experiment filed under Mus musculus [7]. The pIC50 in experiment [5] was 5.46.

`CN1CCC(=C2c3ccccc3C=Cc3ccccc32)CC1` [CYPROHEPTADINE]: the inhibition in vivo at 5 mg/kg stood at 63% in the experiment on Mus musculus [1] and 66% in the experiment on Mus musculus [6].

Take `COc1ccc2c(c1)c(CC(=O)O)c(C)n2C(=O)c1ccc(Cl)cc1` [INDOMETHACIN]: the inhibition in vivo at 10 mg/kg in the experiment on Mus musculus [8] turned out to be 31%; with Mus musculus [11], 14%; with Mus musculus [12] it was 60%. Moreover, the ID50 with Mus musculus [2] stood at 0.29 µmol. Further, the “inhibition (INH)” value with Mus musculus [9] amounted to 82%; in the experiment listed under Mus musculus [10] it was 36%.

The record behind these values is ChEMBL document CHEMBL1146546, “Warangalone, the isoflavonoid anti-inflammatory principle of Erythrina addisoniae stem bark” (J Nat Prod, 2003).
